Positions of bridges follow the written chain, without caps; N, C: chain ends. Non-standard residues stand in square brackets, D forms with d. Residues, ends and D or L forms follow the SMILES beside them. *: point of attachment. X6 = O=C(O)CCCCCCCCCCCCCCCCC(=O)N[C@@H](CCC(=O)NCCCOCCOCCOCCCN*)C(=O)O; Trp(1-CH2COOH) = N[C@@H](Cc1cn(CC(=O)O)c2ccccc12)C(=O)O; Phe(4-F) = N[C@@H](Cc1ccc(F)cc1)C(=O)O; Hyp = O=C(O)[C@@H]1C[C@@H](O)CN1; NMeNle = CCCC[C@H](NC)C(=O)O; Pip = O=C(O)[C@@H]1CCCCN1; NMeA = CN[C@@H](C)C(=O)O; Pra = C#CC[C@H](N)C(=O)O; Dab = NCC[C@H](N)C(=O)O; Dap = NC[C@H](N)C(=O)O
Biological target: T1, PD-L1 (Homo sapiens, UniProt Q9NZQ7)
T1 construct: hPDL1(19-239)-TVMV-His; made in house; host or cells: HEK293T
Experiment: PD-1/PD-L1 Homogenous Time-Resolved Fluorescence (HTRF) binding assay (PD-1-Ig/PD-L1-His)
Conditions: inhibition of PD-1-Ig binding to PD-L1-TVMV-His; value given as range class; read-out: HTRF IC50
How it was run: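 HTRF competition in dPBS with 0.1% BSA and 0.05% Tween-20: 20 nM PD-1-Ig added after 15 min compound pre-incubation with 10 nM PD-L1-His, then another 15 min. Signal (665/620 nm) after 30 min with APC anti-His (20 nM) and Eu anti-Ig (1 nM).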

T1 sequence (Q9NZQ7 with tags, fused parts or gaps): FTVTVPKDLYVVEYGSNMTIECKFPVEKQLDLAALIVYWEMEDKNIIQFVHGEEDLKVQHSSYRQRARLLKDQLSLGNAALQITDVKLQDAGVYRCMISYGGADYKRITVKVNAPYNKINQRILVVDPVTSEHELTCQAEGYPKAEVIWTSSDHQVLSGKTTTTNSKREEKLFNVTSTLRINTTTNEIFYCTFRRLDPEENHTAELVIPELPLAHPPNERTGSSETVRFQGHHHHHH

| SMILES | IC50 [nM] |
| --- | --- |
| CCCC[C@H]1C(=O)N(C)[C@@H](CCCC)C(=O)N[C@@H](CC(C)C)C(=O)N[C@H](C(=O)NCC(=O)N[C@@H](CC(=O)NCCCOCCOCCOCCCNC(=O)CC[C@H](NC(=O)CCCCCCCCCCCCCCCCC(=O)O)C(=O)O)C(=O)O)CSCC(=O)N[C@@H](Cc2ccc(O)cc2)C(=O)N2CCCC[C@H]2C(=O)N[C@@H](CC(N)=O)C(=O)N2CCC[C@H]2C(=O)N[C@@H](CN)C(=O)N[C@@H](CC(C)C)C(=O)N2C[C@H](O)C[C@H]2C(=O)N[C@@H](Cc2c[nH]c3ccccc23)C(=O)N[C@@H](CCN)C(=O)N[C@@H](Cc2cn(CC(=O)O)c3ccccc23)C(=O)N1C [Example 11262] ({CH2CO}-Y[Pip]NP[Dap]L[Hyp]W[Dab][Trp(1-CH2COOH)][NMeNle][NMeNle]LCGD(X6)-OH; thioether N-14) | 10 to 99 |
| CCCC[C@H]1C(=O)N(C)[C@@H](CCCC)C(=O)N[C@@H](CC(C)C)C(=O)N[C@H](C(=O)NCC(=O)N[C@@H](CC(=O)O)C(=O)NCCCOCCOCCOCCCNC(=O)CC[C@H](NC(=O)CCCCCCCCCCCCCCCCC(=O)O)C(=O)O)CSCC(=O)N[C@@H](Cc2ccc(F)cc2)C(=O)N2CCCC[C@H]2C(=O)N[C@@H](CC(=O)O)C(=O)N2CCC[C@H]2C(=O)N[C@@H](CN)C(=O)N[C@@H](CCC(=O)O)C(=O)N2C[C@H](O)C[C@H]2C(=O)N[C@@H](Cc2c[nH]c3ccccc23)C(=O)N[C@@H](CCN)C(=O)N[C@@H](Cc2cn(CC(=O)O)c3ccccc23)C(=O)N1C [Example 11264] ({CH2CO}-[Phe(4-F)][Pip]DP[Dap]E[Hyp]W[Dab][Trp(1-CH2COOH)][NMeNle][NMeNle]LCGD-X6; thioether N-14) | 0.3 to 9.9 |
| CCCC[C@H]1C(=O)N(C)[C@@H](CCCC)C(=O)N[C@@H](CC(C)C)C(=O)N[C@H](C(=O)NCC(=O)N[C@@H](CCC(=O)O)C(=O)NCCCOCCOCCOCCCNC(=O)CC[C@H](NC(=O)CCCCCCCCCCCCCCCCC(=O)O)C(=O)O)CSCC(=O)N[C@@H](Cc2ccc(F)cc2)C(=O)N2CCCC[C@H]2C(=O)N[C@@H](CC(=O)O)C(=O)N2CCC[C@H]2C(=O)N[C@@H](CN)C(=O)N[C@@H](CCC(=O)O)C(=O)N2C[C@H](O)C[C@H]2C(=O)N[C@@H](Cc2c[nH]c3ccccc23)C(=O)N[C@@H](CCN)C(=O)N[C@@H](Cc2cn(CC(=O)O)c3ccccc23)C(=O)N1C [Example 11265] ({CH2CO}-[Phe(4-F)][Pip]DP[Dap]E[Hyp]W[Dab][Trp(1-CH2COOH)][NMeNle][NMeNle]LCGE-X6; thioether N-14) | 10 to 99 |
| CCCC[C@H]1C(=O)N(C)[C@@H](CCCC)C(=O)N[C@@H](CC(C)C)C(=O)N[C@H](C(=O)NCC(=O)N[C@@H](CC(=O)NCCCOCCOCCOCCCNC(=O)CC[C@H](NC(=O)CCCCCCCCCCCCCCCCC(=O)O)C(=O)O)C(=O)O)CSCC(=O)N[C@@H](Cc2ccc(F)cc2)C(=O)N2CCCC[C@H]2C(=O)N[C@@H](CC(=O)O)C(=O)N2CCC[C@H]2C(=O)N[C@@H](CN)C(=O)N[C@@H](CCC(=O)O)C(=O)N2C[C@H](O)C[C@H]2C(=O)N[C@@H](Cc2c[nH]c3ccccc23)C(=O)N[C@@H](CCN)C(=O)N[C@@H](Cc2cn(CC(=O)O)c3ccccc23)C(=O)N1C [Example 11266] ({CH2CO}-[Phe(4-F)][Pip]DP[Dap]E[Hyp]W[Dab][Trp(1-CH2COOH)][NMeNle][NMeNle]LCGD(X6)-OH; thioether N-14) | 0.3 to 9.9 |
| CCCC[C@H]1C(=O)N(C)[C@@H](CCCC)C(=O)N[C@@H](CC(C)C)C(=O)N[C@H](C(=O)NCC(=O)NCC(=O)N[C@@H](Cc2cn(CC[C@H](NC(=O)CCCCCCCCCCCCCCCCC(=O)O)C(=O)O)nn2)C(=O)O)CSCC(=O)N[C@@H](Cc2ccc(O)cc2)C(=O)N(C)[C@@H](C)C(=O)N[C@@H](CC(N)=O)C(=O)N2CCC[C@H]2C(=O)N[C@@H](CN)C(=O)N[C@@H](CC(C)C)C(=O)N2C[C@H](O)C[C@H]2C(=O)N[C@@H](Cc2c[nH]c3ccccc23)C(=O)N[C@@H](CCN)C(=O)N[C@@H](Cc2cn(CC(=O)O)c3ccccc23)C(=O)N1C [Example 13122] | 100 to 1600 |
| CCCC[C@H]1C(=O)N(C)[C@@H](CCCC)C(=O)N[C@@H](CCC(=O)O)C(=O)N[C@H](C(=O)NCC(=O)N[C@@H](Cc2cn(CC[C@H](NC(=O)CCCCCCCCCCCCCCCCC(=O)O)C(=O)O)nn2)C(=O)O)CSCC(=O)N[C@@H](Cc2ccc(O)cc2)C(=O)N(C)[C@@H](C)C(=O)N[C@@H](CC(=O)O)C(=O)N2CCC[C@H]2C(=O)N[C@@H](CN)C(=O)N[C@@H](CC(C)C)C(=O)N2C[C@H](O)C[C@H]2C(=O)N[C@@H](Cc2c[nH]c3ccccc23)C(=O)N[C@@H](CCN)C(=O)N[C@@H](Cc2cn(CC(=O)O)c3ccccc23)C(=O)N1C [Example 13126] | 10 to 99 |
| CCCC[C@H]1C(=O)N(C)[C@@H](CCCC)C(=O)N[C@@H](CC(C)C)C(=O)N[C@H](C(=O)N[C@@H](Cc2cn(CCC(NC(=O)CCCCCCCCCCCCCCCCC(=O)O)C(=O)O)nn2)C(=O)O)CSCC(=O)N[C@@H](Cc2ccc(O)cc2)C(=O)N(C)[C@@H](C)C(=O)N[C@@H](CC(N)=O)C(=O)N2CCC[C@H]2C(=O)N[C@@H](CN)C(=O)N[C@@H](CC(C)C)C(=O)N2C[C@H](O)C[C@H]2C(=O)N[C@@H](Cc2c[nH]c3ccccc23)C(=O)N[C@@H](CCN)C(=O)N[C@@H](Cc2cn(CC(=O)O)c3ccccc23)C(=O)N1C (some centres unmarked) [Example 13129] | 10 to 99 |
| CCCC[C@H]1C(=O)N(C)[C@@H](CCCC)C(=O)N[C@@H](CCC(=O)O)C(=O)N[C@H](C(=O)N[C@@H](Cc2cn(CCC(NC(=O)CCCCCCCCCCCCCCCCC(=O)O)C(=O)O)nn2)C(=O)O)CSCC(=O)N[C@@H](Cc2ccc(O)cc2)C(=O)N(C)[C@@H](C)C(=O)N[C@@H](CC(N)=O)C(=O)N2CCC[C@H]2C(=O)N[C@@H](CN)C(=O)N[C@@H](CC(C)C)C(=O)N2C[C@H](O)C[C@H]2C(=O)N[C@@H](Cc2c[nH]c3ccccc23)C(=O)N[C@@H](CCN)C(=O)N[C@@H](Cc2cn(CC(=O)O)c3ccccc23)C(=O)N1C (some centres unmarked) [Example 13130] | 0.3 to 9.9 |
| CCCC[C@H]1C(=O)N(C)[C@@H](CCCC)C(=O)N[C@@H](CC(=O)O)C(=O)N[C@H](C(=O)N[C@@H](Cc2cn(CCC(NC(=O)CCCCCCCCCCCCCCCCC(=O)O)C(=O)O)nn2)C(=O)O)CSCC(=O)N[C@@H](Cc2ccc(O)cc2)C(=O)N(C)[C@@H](C)C(=O)N[C@@H](CC(N)=O)C(=O)N2CCC[C@H]2C(=O)N[C@@H](CN)C(=O)N[C@@H](CC(C)C)C(=O)N2C[C@H](O)C[C@H]2C(=O)N[C@@H](Cc2c[nH]c3ccccc23)C(=O)N[C@@H](CCN)C(=O)N[C@@H](Cc2cn(CC(=O)O)c3ccccc23)C(=O)N1C (some centres unmarked) [Example 13131] | 10 to 99 |

The next lines start with the values.

| IC50 [nM] | SMILES |
| --- | --- |
| 0.3 to 9.9 | CCCC[C@H]1C(=O)N(C)[C@@H](CCCC)C(=O)N[C@@H](CC(C)C)C(=O)N[C@H](C(=O)NCC(=O)N[C@@H](CCC(=O)NCCCOCCOCCOCCCNC(=O)CC[C@H](NC(=O)CCCCCCCCCCCCCCCCC(=O)O)C(=O)O)C(=O)O)CSCC(=O)N[C@@H](Cc2ccc(F)cc2)C(=O)N2CCCC[C@H]2C(=O)N[C@@H](CC(=O)O)C(=O)N2CCC[C@H]2C(=O)N[C@@H](CN)C(=O)N[C@@H](CCC(=O)O)C(=O)N2C[C@H](O)C[C@H]2C(=O)N[C@@H](Cc2c[nH]c3ccccc23)C(=O)N[C@@H](CCN)C(=O)N[C@@H](Cc2cn(CC(=O)O)c3ccccc23)C(=O)N1C [Example 11263] ({CH2CO}-[Phe(4-F)][Pip]DP[Dap]E[Hyp]W[Dab][Trp(1-CH2COOH)][NMeNle][NMeNle]LCGE(X6)-OH; thioether N-14) |
| 10 to 99 | C#CC[C@H](NC(=O)CNC(=O)[C@@H]1CSCC(=O)N[C@@H](Cc2ccc(O)cc2)C(=O)N(C)[C@@H](C)C(=O)N[C@@H](CC(N)=O)C(=O)N2CCC[C@H]2C(=O)N[C@@H](CN)C(=O)N[C@@H](CC(C)C)C(=O)N2C[C@H](O)C[C@H]2C(=O)N[C@@H](Cc2c[nH]c3ccccc23)C(=O)N[C@@H](CCN)C(=O)N[C@@H](Cc2cn(CC(=O)O)c3ccccc23)C(=O)N(C)[C@@H](CCCC)C(=O)N(C)[C@@H](CCCC)C(=O)N[C@@H](CC(C)C)C(=O)N1)C(=O)N[C@@H](CCC(=O)NCCCOCCOCCOCCCNC(=O)CC[C@H](NC(=O)CCCCCCCCCCCCCCCCC(=O)O)C(=O)O)C(=O)O [Example 11267] ({CH2CO}-Y[NMeA]NP[Dap]L[Hyp]W[Dab][Trp(1-CH2COOH)][NMeNle][NMeNle]LCG[Pra]E(X6)-OH; thioether N-14) |
| 10 to 99 | CCCCCCCCCCCCCC(=O)NCc1cn(CC[C@H](NC(=O)CNC(=O)[C@@H]2CSCC(=O)N[C@@H](Cc3ccc(O)cc3)C(=O)N(C)[C@@H](C)C(=O)N[C@@H](CC(N)=O)C(=O)N3CCC[C@H]3C(=O)N[C@@H](CN)C(=O)N[C@@H](CC(C)C)C(=O)N3C[C@H](O)C[C@H]3C(=O)N[C@@H](Cc3c[nH]c4ccccc34)C(=O)N[C@@H](CO)C(=O)N[C@@H](Cc3csc4ccccc34)C(=O)N(C)[C@@H](CCCC)C(=O)N(C)[C@@H](CCCC)C(=O)N[C@@H](CCCNC(=N)N)C(=O)N2)C(N)=O)nn1 [Example 13051] |
| 10 to 99 | CCCC[C@H]1C(=O)N(C)[C@@H](CCCC)C(=O)N[C@@H](CCCNC(=N)N)C(=O)N[C@H](C(=O)NCC(=O)N[C@@H](CCn2cc(CNC(=O)COCCOCCOC)nn2)C(N)=O)CSCC(=O)N[C@@H](Cc2ccc(O)cc2)C(=O)N(C)[C@@H](C)C(=O)N[C@@H](CC(N)=O)C(=O)N2CCC[C@H]2C(=O)N[C@@H](CN)C(=O)N[C@@H](CC(C)C)C(=O)N2C[C@H](O)C[C@H]2C(=O)N[C@@H](Cc2c[nH]c3ccccc23)C(=O)N[C@@H](CO)C(=O)N[C@@H](Cc2csc3ccccc23)C(=O)N1C [Example 13052] |
| 10 to 99 | CCCC[C@H]1C(=O)N(C)[C@@H](CCCC)C(=O)N[C@@H](CCC(=O)O)C(=O)N[C@H](C(=O)NCC(=O)N[C@@H](Cc2cn(CC[C@H](NC(=O)CCCCCCCCCCCCCCCCC(=O)O)C(=O)O)nn2)C(=O)O)CSCC(=O)N[C@@H](Cc2ccc(O)cc2)C(=O)N(C)[C@@H](C)C(=O)N[C@@H](CC(N)=O)C(=O)N2CCC[C@H]2C(=O)N[C@@H](CN)C(=O)N[C@@H](CC(C)C)C(=O)N2C[C@H](O)C[C@H]2C(=O)N[C@@H](Cc2c[nH]c3ccccc23)C(=O)N[C@@H](CCN)C(=O)N[C@@H](Cc2cn(CC(=O)O)c3ccccc23)C(=O)N1C [Example 13125] |
